In patent US20230212229A1 (priority 2021, published 2023):
Where “and” joins values, the source holds several entries; their conditions need not be identical. Equal entries are not always repeated. Where two headings read alike, the source gives them in different places.

How the values were obtained:
[1] = system: Isg56 mRNA; type: in vivo, ACE2 transgenic mice; settings: for Isg56 mRNA: relative to unstimulated mice, individual mice n = 8
[2] = system: Ifnb1 mRNA; type: in vivo, ACE2 transgenic mice; settings: for Ifnb1 mRNA: relative to unstimulated mice, individual mice n = 8
[3] = system: SARS-CoV-2 S protein; type: in vivo, ACE2 transgenic mice; settings: 0.5 mg NIP-V; lungs 24 h after infection; versus PBS+SARS-CoV-2
[4] = system: SARS-CoV-2 N protein; settings: 0.5 mg NIP-V; lungs 24 h after infection; versus PBS+SARS-CoV-2
[5] = system: MAVS oligomerization; type: cell-based; settings: HEK 293T, Myc-NP transfected; 50 μM or 100 μM NIP-V 1 h before SeV stimulation for 8 h
[6] = system: SARS-CoV-2 genomic RNA; assay: qPCR of the load of SARS-CoV-2 genomic RNA in spleen, liver and lung tissues; type: in vivo, ACE2 transgenic mice; settings: for SARS-CoV-2 genomic RNA: individual mice n = 8
[7] = system: SARS-CoV-2; type: in vivo, ACE2 transgenic mice; settings: lungs 24 h after infection
[8] = system: SARS-CoV-2; type: in vivo, ACE2 transgenic mice; settings: for SARS-CoV-2 copies/μL: lung tissue, 0.5 mg NIP-V injected 1 h before intranasal 1×10^5 TCID50, individual mice n = 8
[9] = system: IFN-β; type: in vivo, ACE2 transgenic mice; settings: for IFN-β in serum: 0.5 mg NIP-V, individual mice n = 8
[10] = NIP-V treatment versus PBS-treated group

IHKNLLIVQDKFPPRRRQRRKKRG [NIP-V, interfering peptide targeting amino acids 346 to 357 of the SARS-CoV-2 N protein dimerization domain, fused with HIV-TAT]
Isg56 mRNA ([1]; Liver, 16 h): 30.49 Fold and 18.13 Fold and 27.16 Fold and 42.29 Fold and 27.58 Fold and 35.86 Fold and 25.80 Fold and 29.09 Fold
Isg56 mRNA ([1]; Liver, 24 h): 14.51 Fold and 10.01 Fold and 7.41 Fold and 10.47 Fold and 12.89 Fold and 12.03 Fold and 9.46 Fold and 5.61 Fold
Isg56 mRNA ([1]; Lung, 16 h): 92.65 Fold and 109.88 Fold and 67.64 Fold and 46.59 Fold and 99.03 Fold and 85.62 Fold and 91.13 Fold and 26.35 Fold
Isg56 mRNA ([1]; Lung, 24 h): 232.32 Fold and 263.20 Fold and 152.15 Fold and 131.60 Fold and 144.01 Fold and 188.71 Fold and 205.07 Fold and 374.81 Fold
expression of Isg56 mRNA in spleen, liver and lung tissues (in words) [1, 10]: increase the expression
Isg56 mRNA ([1]; Spleen, 16 h): 121.34 Fold and 87.49 Fold and 110.12 Fold and 85.19 Fold and 94.54 Fold and 59.17 Fold and 76.17 Fold and 82.88 Fold
Isg56 mRNA ([1]; Spleen, 24 h): 73.25 Fold and 63.36 Fold and 55.41 Fold and 62.68 Fold and 45.16 Fold and 32.90 Fold and 56.97 Fold and 36.50 Fold
Ifnb1 mRNA ([2]; Liver, 16 h): 52.55 Fold and 86.45 Fold and 85.91 Fold and 111.15 Fold and 85.02 Fold and 132.00 Fold and 68.88 Fold and 81.36 Fold
Ifnb1 mRNA ([2]; Liver, 24 h): 22.59 Fold and 79.02 Fold and 29.53 Fold and 33.69 Fold and 42.93 Fold and 49.66 Fold and 31.43 Fold and 45.92 Fold
Ifnb1 mRNA ([2]; Lung, 16 h): 186.37 Fold and 302.75 Fold and 202.16 Fold and 145.17 Fold and 113.93 Fold and 133.62 Fold and 259.88 Fold and 148.33 Fold
Ifnb1 mRNA ([2]; Lung, 24 h): 82.49 Fold and 165.42 Fold and 112.99 Fold and 126.62 Fold and 84.22 Fold and 36.61 Fold and 22.54 Fold and 46.19 Fold
expression of Ifnb1 mRNA in spleen, liver and lung tissues (in words) [2, 10]: increase the expression
Ifnb1 mRNA ([2]; Spleen, 16 h): 87.27 Fold and 42.74 Fold and 73.72 Fold and 58.30 Fold and 67.91 Fold and 98.19 Fold and 64.75 Fold and 70.43 Fold
Ifnb1 mRNA ([2]; Spleen, 24 h): 45.66 Fold and 36.50 Fold and 51.66 Fold and 47.70 Fold and 40.76 Fold and 71.38 Fold and 47.81 Fold and 45.86 Fold
SARS-CoV-2 S protein signal in lung tissue (immunohistochemistry) [3]: much lower than that of the PBS+SARS-CoV-2 treated mice
SARS-CoV-2 N protein signal in lung tissue (immunofluorescence) [4]: weaker N protein signals can be detected
MAVS oligomerization inhibited by SARS-CoV-2 N protein (SDD-PAGE) [5]: restore the MAVS oligomerization in a dose-dependent manner
SARS-CoV-2 genomic RNA ([6]; Liver, 16 h): 2.09E+02 Fold and 1.42E+02 Fold and 8.55E+01 Fold and 1.08E+02 Fold and 1.69E+02 Fold and 6.80E+02 Fold and 8.67E+01 Fold and 2.38E+02 Fold
SARS-CoV-2 genomic RNA ([6]; Liver, 24 h): 6.41E+01 Fold and 4.17E+01 Fold and 4.33E+01 Fold and 1.70E+02 Fold and 5.83E+01 Fold and 5.13E+01 Fold and 3.93E+01 Fold and 2.38E+01 Fold
SARS-CoV-2 genomic RNA ([6]; Lung, 16 h): 5.93E+03 Fold and 4.43E+03 Fold and 2.73E+03 Fold and 1.61E+04 Fold and 1.86E+04 Fold and 1.48E+04 Fold and 8.10E+03 Fold and 3.62E+03 Fold
SARS-CoV-2 genomic RNA ([6]; Lung, 24 h): 4.74E+03 Fold and 3.19E+03 Fold and 3.72E+03 Fold and 1.23E+03 Fold and 1.56E+03 Fold and 1.26E+03 Fold and 1.49E+04 Fold and 0.00E+00 Fold
SARS-CoV-2 genomic RNA ([6]; Spleen, 16 h): 1.66E+03 Fold and 1.40E+03 Fold and 1.37E+03 Fold and 4.78E+02 Fold and 1.60E+03 Fold and 8.65E+02 Fold and 1.33E+03 Fold and 1.15E+03 Fold
SARS-CoV-2 genomic RNA ([6]; Spleen, 24 h): 4.18E+02 Fold and 3.11E+02 Fold and 2.38E+02 Fold and 1.85E+02 Fold and 4.43E+02 Fold and 1.35E+02 Fold and 2.56E+02 Fold and 7.20E+02 Fold
proliferation of SARS-CoV-2 in tissues (qPCR, in words) ([6]; spleen, liver and lung, NIP-V treatment versus PBS-treated group): inhibit the proliferation of SARS-CoV-2
lung lesions caused by SARS-CoV-2 infection (HE staining) ([7]; 0.5 mg NIP-V 1 h before infection, versus PBS+SARS-CoV-2): significantly reduce the lung lesions
thickening of alveolar septa (HE staining) ([7]; 0.5 mg NIP-V): not significant
occurrence of hemagglutination and inflammatory cell infiltration (HE staining) ([7]; 0.5 mg NIP-V, versus PBS+SARS-CoV-2 group): significantly lower than that in the PBS+SARS-CoV-2 group
SARS-CoV-2 viral load in lung tissue (in words) ([8]; NIP-V-treated groups (2 and 4) versus PBS-treated groups, 16 h and 24 h): greatly reduced
SARS-CoV-2 copies/μL ([8]; 16 h after infection): 30 copies/μL and 76 copies/μL and 0 copies/μL (3×) and 2484 copies/μL and 131 copies/μL and 726 copies/μL
SARS-CoV-2 copies/μL ([8]; 24 h after infection): 3 copies/μL and 0 copies/μL (7×)
content of IFN-β in serum (in words) ([9]; NIP-V-treated groups versus PBS-treated groups, 16 h and 24 h): significantly higher than that in the PBS-treated group
IFN-β in serum ([9]; 16 h after SARS-CoV-2 infection): 52.44 pg/mL and 46.60 pg/mL and 50.21 pg/mL and 75.33 pg/mL and 37.97 pg/mL and 52.98 pg/mL and 68.93 pg/mL and 48.49 pg/mL
IFN-β in serum ([9]; 24 h after SARS-CoV-2 infection): 38.29 pg/mL and 38.61 pg/mL and 34.78 pg/mL and 30.95 pg/mL and 44.88 pg/mL and 37.02 pg/mL and 35.42 pg/mL and 45.20 pg/mL
